pIC50: −log10 of the molar value.
Key:
Trypsin = Trypsin (Sus scrofa, UniProt P00761); assay: Inhibitory activity against porcine pancreatic trypsin (TRP)
Chymase = target: T1, Chymase (Homo sapiens, UniProt P23946); assay: Inhibitory activity against human serine protease chymase
T1 sequence (P23946 whole entry): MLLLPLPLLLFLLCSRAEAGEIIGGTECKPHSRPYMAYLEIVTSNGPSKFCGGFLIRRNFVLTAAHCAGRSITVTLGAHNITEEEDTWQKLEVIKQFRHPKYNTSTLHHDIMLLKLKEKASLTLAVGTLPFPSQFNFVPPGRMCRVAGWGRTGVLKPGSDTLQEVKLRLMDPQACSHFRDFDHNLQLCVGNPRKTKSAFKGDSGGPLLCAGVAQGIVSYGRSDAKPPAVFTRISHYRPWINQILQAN

Chymotrypsinogen A = Chymotrypsinogen A (Bos taurus, UniProt P00766); assay: Inhibitory activity against alpha-chymotrypsin (alpha-CT)
Cathepsin G = target: T2, Cathepsin G (Homo sapiens, UniProt P08311); assay: Inhibitory activity against human leukocyte cathepsin G
T2 sequence (P08311 whole entry): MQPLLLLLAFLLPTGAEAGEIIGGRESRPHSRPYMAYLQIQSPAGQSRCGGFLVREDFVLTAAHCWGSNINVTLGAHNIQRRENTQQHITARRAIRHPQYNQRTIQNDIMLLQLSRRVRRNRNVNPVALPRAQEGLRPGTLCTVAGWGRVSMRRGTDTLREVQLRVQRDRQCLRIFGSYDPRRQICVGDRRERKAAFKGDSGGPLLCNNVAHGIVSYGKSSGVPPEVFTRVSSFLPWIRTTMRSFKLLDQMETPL

Sequence of Trypsin (P00761 whole entry): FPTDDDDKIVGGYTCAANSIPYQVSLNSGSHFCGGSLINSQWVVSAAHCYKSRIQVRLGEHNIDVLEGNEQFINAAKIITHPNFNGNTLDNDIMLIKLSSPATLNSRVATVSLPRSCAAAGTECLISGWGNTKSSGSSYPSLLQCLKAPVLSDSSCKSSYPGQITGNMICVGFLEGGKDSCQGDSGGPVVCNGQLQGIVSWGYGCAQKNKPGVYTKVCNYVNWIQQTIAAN

| pIC50 (Trypsin) | pIC50 (Chymase) | pIC50 (Chymotrypsinogen A) | pIC50 (Cathepsin G) | SMILES |
| --- | --- | --- | --- | --- |
| 3.54 | 6.37 | 4.96 | – | Cc1cccc(CCC(=O)N[C@@H](Cc2ccccc2)C(=O)CCl)c1 |
| < 3.00 | – | 5.66 | 5.03 | COc1ccc(CCC(=O)N[C@@H](Cc2ccccc2)C(=O)CCl)cc1 |
| 3.92 | – | 4.43 | – | CCc1ccc(CCC(=O)N[C@@H](Cc2ccccc2)C(=O)CCl)cc1 |
| 4.55 | 5.43 | 5.38 | – | O=C(CCc1ccc(Cl)c(Cl)c1)N[C@@H](Cc1ccccc1)C(=O)CCl |
| 4.47 | – | 4.70 | – | O=C(CCc1cccc(C(F)(F)F)c1)N[C@@H](Cc1ccccc1)C(=O)CCl |
| 3.62 | 5.89 | 5.03 | – | O=C(N[C@@H](Cc1ccccc1)C(=O)CCl)c1ccccc1 |
| 3.68 | 6.40 | 4.77 | – | O=C(N[C@@H](Cc1ccccc1)C(=O)CCl)OCc1ccccc1 |
| < 3.00 | 5.92 | 4.36 | – | O=C(CCc1cccc(F)c1)N[C@@H](Cc1ccccc1)C(=O)CCl |
| 5.40 | – | 4.41 | – | CC(C)c1ccc(CCC(=O)N[C@@H](Cc2ccccc2)C(=O)CCl)cc1 |
| 4.36 | 6.05 | 4.64 | – | O=C(CCc1cccc(Cl)c1)N[C@@H](Cc1ccccc1)C(=O)CCl |
| < 3.00 | – | 4.07 | – | COc1cccc(CCC(=O)N[C@@H](Cc2ccccc2)C(=O)CCl)c1 |
| 4.12 | 5.74 | 5.28 | – | O=C(CCc1cccc(O)c1)N[C@@H](Cc1ccccc1)C(=O)CCl |
| < 3.00 | 5.72 | 4.74 | – | O=C(CCc1ccc(Cl)cc1)N[C@@H](Cc1ccccc1)C(=O)CCl |
| 4.52 | – | 4.77 | – | O=C(CCc1ccc(C(F)(F)F)cc1)N[C@@H](Cc1ccccc1)C(=O)CCl |
| < 3.00 | 5.62 | 4.00 | – | O=C(CCc1ccc(F)cc1)N[C@@H](Cc1ccccc1)C(=O)CCl |
| < 3.00 | – | 4.29 | – | COc1ccc(CCC(=O)N[C@@H](Cc2ccccc2)C(=O)CCl)cc1OC |
| 3.22 | 6.11 | 4.92 | – | Cc1ccccc1CCC(=O)N[C@@H](Cc1ccccc1)C(=O)CCl |
| 3.59 | 6.52 | 4.01 | – | Cc1ccc(CCC(=O)N[C@@H](Cc2ccccc2)C(=O)CCl)cc1 |
| < 3.00 | 5.57 | 4.85 | – | O=C(CCc1ccc(O)cc1)N[C@@H](Cc1ccccc1)C(=O)CCl |
| < 3.00 | – | 5.66 | – | COc1cccc(CCC(=O)N[C@@H](Cc2ccccc2)C(=O)CCl)c1OC |
| 4.47 | – | 5.57 | – | COc1ccccc1CCC(=O)N[C@@H](Cc1ccccc1)C(=O)CCl |
| – | 6.44 | 4.47 | – | O=C(CCc1ccccc1F)N[C@@H](Cc1ccccc1)C(=O)CCl |
| 4.01 | 6.40 | 5.00 | – | O=C(CCc1cccc(Cl)c1Cl)N[C@@H](Cc1ccccc1)C(=O)CCl |
| < 3.00 | 5.33 | 4.70 | – | O=C(Cc1ccccc1)N[C@@H](Cc1ccccc1)C(=O)CCl |
| 4.07 | 6.22 | 4.01 | – | O=C(CCc1ccccc1Cl)N[C@@H](Cc1ccccc1)C(=O)CCl |
| 3.68 | 4.82 | 5.06 | – | O=C(/C=C/c1ccccc1)N[C@@H](Cc1ccccc1)C(=O)CCl |
| < 3.00 | – | 4.43 | – | O=C(CCc1ccccc1)N[C@@H](Cc1ccccc1)C(=O)CCl |
| 3.70 | 5.48 | 3.85 | 3.96 | Cc1ccc(S(=O)(=O)N[C@@H](Cc2ccccc2)C(=O)CCl)cc1 [TPCK] |

| SMILES | pIC50 (Trypsin) | pIC50 (Chymase) | pIC50 (Chymotrypsinogen A) | pIC50 (Cathepsin G) |
| --- | --- | --- | --- | --- |
| O=C(CCCCc1ccccc1)N[C@@H](Cc1ccccc1)C(=O)CCl | < 3.00 | 5.92 | 4.74 | – |
| O=C(CCCc1ccccc1)N[C@@H](Cc1ccccc1)C(=O)CCl | 3.16 | 5.60 | 4.59 | – |

Source: ChEMBL document CHEMBL1133367, “Structure-activity relationship studies of chloromethyl ketone derivatives for selective human chymase inhibitors” (Bioorg Med Chem Lett, 2000)
